Laboratory results reported in publication PMC10378394 (Current Issues in Molecular Biology, 2023).

Assays:
[1] = biological target: PKCη(h) (Homo sapiens, UniProt P24723); experiment: Eurofins kinase assay
[2] = biological target: T1, ARAF (Homo sapiens, UniProt P10398); experiment: Eurofins kinase assay
T1 sequence (P10398 1-606): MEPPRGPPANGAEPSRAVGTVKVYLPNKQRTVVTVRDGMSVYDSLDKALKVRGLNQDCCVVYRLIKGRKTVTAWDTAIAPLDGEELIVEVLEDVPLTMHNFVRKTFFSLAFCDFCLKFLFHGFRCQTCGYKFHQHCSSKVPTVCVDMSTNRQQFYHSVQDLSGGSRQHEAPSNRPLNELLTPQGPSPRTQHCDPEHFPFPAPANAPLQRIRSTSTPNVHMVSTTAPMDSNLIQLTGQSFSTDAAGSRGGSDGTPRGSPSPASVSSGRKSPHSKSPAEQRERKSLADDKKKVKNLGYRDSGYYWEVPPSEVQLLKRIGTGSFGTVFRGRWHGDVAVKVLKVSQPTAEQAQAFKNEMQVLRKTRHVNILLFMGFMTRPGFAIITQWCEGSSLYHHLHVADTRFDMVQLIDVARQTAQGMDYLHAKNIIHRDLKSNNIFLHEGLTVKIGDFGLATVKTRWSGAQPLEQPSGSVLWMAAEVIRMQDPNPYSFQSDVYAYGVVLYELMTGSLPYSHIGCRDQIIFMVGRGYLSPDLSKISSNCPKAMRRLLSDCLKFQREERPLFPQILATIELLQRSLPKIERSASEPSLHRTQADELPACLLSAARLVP

[3] = biological target: CK2(h) (Homo sapiens, UniProt P68400); experiment: Eurofins kinase assay
[4] = biological target: PI3Kinase(p110a(E545K)/p85a)(m) (Mus musculus, UniProt P42337, E545K); experiment: Eurofins kinase assay
[5] = biological target: PKCα(h) (Homo sapiens, UniProt P17252); experiment: Eurofins kinase assay
[6] = 2-week repeated oral DRF toxicity study; assay type: in vivo
[7] = tested on: SW620 (KRAS G12V); experiment: Cell proliferation assay (CellTiter-Glo); details: Homo sapiens, SW-620, 72 h
Procedure: To assess cell viability, the CellTiter-Glo Luminescent Cell Viability Assay Reagent (Promega, Fitchburg, WI, USA) was added to each well. The assay measured ATP levels as an indicator of cell viability. All data points were normalized to the control samples treated with dimethyl sulfoxide when determining IC50 values. Statistical calculations and data analysis, including IC50 determination, were performed using GraphPad Prism software.

[8] = biological target: PKCι(h) (Homo sapiens, UniProt P41743); experiment: Eurofins kinase assay
[9] = Single oral dose toxicity study; assay type: in vivo, Sprague Dawley rats; details: 500 mg/kg oral
[10] = biological target: PKA(h) (Homo sapiens, UniProt P17612); experiment: Eurofins kinase assay

PKCη(h), sequence (P24723 whole entry): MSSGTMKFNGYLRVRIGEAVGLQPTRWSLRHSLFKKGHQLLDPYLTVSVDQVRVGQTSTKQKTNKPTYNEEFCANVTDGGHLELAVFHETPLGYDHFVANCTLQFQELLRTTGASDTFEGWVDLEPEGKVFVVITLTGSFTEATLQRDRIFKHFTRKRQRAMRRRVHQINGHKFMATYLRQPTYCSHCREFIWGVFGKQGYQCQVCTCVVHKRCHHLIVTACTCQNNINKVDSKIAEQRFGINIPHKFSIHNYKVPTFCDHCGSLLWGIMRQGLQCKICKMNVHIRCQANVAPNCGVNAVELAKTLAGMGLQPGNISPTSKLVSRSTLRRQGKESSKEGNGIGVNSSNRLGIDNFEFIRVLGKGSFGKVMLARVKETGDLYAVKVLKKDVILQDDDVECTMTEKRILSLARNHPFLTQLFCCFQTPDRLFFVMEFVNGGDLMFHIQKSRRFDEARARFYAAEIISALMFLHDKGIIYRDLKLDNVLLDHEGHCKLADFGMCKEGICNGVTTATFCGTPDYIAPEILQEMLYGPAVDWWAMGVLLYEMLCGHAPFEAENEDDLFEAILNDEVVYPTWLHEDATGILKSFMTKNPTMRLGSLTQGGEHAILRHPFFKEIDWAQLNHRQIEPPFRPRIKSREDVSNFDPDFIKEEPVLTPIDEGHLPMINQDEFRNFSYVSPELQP
PI3Kinase(p110a(E545K)/p85a)(m), sequence (P42337 whole entry E545K): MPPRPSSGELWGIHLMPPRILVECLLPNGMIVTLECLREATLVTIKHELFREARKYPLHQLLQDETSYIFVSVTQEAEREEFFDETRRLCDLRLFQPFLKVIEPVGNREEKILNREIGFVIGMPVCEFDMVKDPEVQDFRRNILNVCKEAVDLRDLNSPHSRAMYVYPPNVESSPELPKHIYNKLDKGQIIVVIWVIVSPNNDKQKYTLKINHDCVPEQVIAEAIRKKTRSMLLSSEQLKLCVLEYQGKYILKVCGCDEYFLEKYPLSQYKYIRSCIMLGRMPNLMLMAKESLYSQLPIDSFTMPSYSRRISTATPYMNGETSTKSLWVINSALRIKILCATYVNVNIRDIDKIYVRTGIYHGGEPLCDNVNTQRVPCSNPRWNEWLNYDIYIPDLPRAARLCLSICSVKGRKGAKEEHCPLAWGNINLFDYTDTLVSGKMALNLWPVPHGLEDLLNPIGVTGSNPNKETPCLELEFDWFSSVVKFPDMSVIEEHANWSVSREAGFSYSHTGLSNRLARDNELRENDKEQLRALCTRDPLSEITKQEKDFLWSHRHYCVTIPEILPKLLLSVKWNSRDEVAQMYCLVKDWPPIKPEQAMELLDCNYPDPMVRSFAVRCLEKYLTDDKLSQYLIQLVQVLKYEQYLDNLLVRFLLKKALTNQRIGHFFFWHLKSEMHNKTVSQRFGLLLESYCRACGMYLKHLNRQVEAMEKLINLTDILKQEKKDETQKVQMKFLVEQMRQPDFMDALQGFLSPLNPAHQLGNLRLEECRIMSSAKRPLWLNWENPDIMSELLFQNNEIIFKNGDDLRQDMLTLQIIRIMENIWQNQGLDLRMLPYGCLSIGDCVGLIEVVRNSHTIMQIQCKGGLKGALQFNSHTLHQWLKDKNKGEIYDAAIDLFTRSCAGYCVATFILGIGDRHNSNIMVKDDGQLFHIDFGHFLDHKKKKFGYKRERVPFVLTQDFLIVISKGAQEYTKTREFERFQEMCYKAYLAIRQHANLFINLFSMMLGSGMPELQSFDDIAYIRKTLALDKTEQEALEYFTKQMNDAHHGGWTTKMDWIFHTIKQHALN
PI3Kinase(p110a(E545K)/p85a)(m), sequence (P26450 2-724 partner): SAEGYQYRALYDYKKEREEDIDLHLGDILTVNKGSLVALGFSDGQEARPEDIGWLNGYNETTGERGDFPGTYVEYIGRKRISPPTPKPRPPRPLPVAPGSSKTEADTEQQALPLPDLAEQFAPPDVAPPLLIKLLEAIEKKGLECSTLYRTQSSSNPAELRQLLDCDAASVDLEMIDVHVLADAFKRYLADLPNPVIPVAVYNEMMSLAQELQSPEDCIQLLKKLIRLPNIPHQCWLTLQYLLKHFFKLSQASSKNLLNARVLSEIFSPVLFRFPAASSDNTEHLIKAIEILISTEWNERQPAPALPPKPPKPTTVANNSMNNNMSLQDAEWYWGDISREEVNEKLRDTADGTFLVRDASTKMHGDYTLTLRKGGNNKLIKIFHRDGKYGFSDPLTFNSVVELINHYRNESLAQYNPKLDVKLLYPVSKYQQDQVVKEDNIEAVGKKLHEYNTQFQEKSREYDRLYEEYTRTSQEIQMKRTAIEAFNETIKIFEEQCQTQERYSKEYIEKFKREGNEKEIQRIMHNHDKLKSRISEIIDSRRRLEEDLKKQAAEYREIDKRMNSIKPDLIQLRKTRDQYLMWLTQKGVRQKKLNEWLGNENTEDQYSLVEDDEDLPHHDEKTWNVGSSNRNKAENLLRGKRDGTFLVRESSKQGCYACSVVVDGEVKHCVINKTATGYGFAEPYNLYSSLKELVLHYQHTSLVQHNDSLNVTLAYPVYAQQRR
CK2(h), sequence (P68400 whole entry): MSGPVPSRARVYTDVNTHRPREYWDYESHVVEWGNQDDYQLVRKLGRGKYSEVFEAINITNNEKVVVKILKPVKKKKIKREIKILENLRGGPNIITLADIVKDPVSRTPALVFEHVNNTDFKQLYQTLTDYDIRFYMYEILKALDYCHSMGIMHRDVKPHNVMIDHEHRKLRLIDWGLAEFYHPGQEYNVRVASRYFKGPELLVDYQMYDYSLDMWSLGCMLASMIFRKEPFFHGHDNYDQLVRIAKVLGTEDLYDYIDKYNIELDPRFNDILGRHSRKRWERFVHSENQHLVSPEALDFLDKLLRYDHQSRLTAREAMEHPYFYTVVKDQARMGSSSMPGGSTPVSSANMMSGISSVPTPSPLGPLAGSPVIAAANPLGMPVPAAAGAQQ
CK2(h), sequence (P67870 whole entry partner): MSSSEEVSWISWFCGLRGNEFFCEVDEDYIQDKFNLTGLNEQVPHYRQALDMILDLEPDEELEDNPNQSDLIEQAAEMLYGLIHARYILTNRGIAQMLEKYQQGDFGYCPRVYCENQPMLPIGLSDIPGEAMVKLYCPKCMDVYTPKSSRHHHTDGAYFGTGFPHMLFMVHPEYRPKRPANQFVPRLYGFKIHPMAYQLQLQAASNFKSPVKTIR
PKCι(h), sequence (P41743 whole entry): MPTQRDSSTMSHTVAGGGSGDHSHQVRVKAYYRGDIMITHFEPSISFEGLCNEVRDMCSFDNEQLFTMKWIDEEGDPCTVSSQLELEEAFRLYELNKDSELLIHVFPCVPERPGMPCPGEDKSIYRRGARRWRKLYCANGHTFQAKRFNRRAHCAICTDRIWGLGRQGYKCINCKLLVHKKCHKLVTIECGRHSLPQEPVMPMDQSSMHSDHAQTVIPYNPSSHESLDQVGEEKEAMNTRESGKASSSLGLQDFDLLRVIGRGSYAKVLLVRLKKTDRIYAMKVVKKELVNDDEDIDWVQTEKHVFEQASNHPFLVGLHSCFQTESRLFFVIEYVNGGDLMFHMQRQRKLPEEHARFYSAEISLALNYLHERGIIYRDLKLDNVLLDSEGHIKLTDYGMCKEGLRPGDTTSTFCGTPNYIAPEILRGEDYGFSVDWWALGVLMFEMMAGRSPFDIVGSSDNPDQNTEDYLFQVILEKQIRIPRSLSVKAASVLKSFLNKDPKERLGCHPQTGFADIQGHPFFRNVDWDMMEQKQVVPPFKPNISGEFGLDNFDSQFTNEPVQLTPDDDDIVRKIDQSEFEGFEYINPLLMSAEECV

O=C(Nc1cc(Nc2ncccc2-c2ncnc3[nH]cnc23)ccc1F)c1cc(C(F)(F)F)cc(C(F)(F)F)c1 [SJ-C1044, N-(5-(3-(9H-purin-6-yl)pyridin-2-ylamino)-2-fluorophenyl)-3,5-bis(trifluoromethyl)benzamide]
inhibition at 10 µM [1]: 3%
IC50 [2]: > 10000 nM
inhibition at 10 µM ([2]; Table S1 no. 8): 44%
inhibition at 10 µM ([2]; second A-Raf(h) entry, Table S1 no. 62): -6%
inhibition at 10 µM [3]: -11%
inhibition at 10 µM [4]: 20%
inhibition at 10 µM [5]: -14%
2-week repeated oral toxicity ([6]; 250 mg/kg oral): no toxicity
2-week repeated oral toxicity ([6]; 500 mg/kg oral): decreased body weight
GI50 [7]: 628 nM
inhibition at 10 µM [8]: 11%
single oral dose toxicity [9]: no respiratory effects or signs of toxicity
inhibition at 10 µM [10]: -2%
